Test results published in paper PMC4450660, “Biochemical and Structural Characterization of Enolase from Chloroflexus aurantiacus: Evidence for a Thermophilic Origin” (Frontiers in Bioengineering and Biotechnology, 2015).

Biological target: T1, EnoCa (enolase-1 from Chloroflexus aurantiacus) (Chloroflexus aurantiacus, UniProt A9WCM4)
T1 construct: gene eno; native protein purified from C. aurantiacus cells, untagged; homodimer, subunit ~46 kDa, total ~92-96 kDa
Test: X-ray crystal structure of the complex
Format: binding
Details: active site, closed conformation, second Mg2+ modelled; crystals at pH 9.0

T1 sequence (A9WCM4 whole entry): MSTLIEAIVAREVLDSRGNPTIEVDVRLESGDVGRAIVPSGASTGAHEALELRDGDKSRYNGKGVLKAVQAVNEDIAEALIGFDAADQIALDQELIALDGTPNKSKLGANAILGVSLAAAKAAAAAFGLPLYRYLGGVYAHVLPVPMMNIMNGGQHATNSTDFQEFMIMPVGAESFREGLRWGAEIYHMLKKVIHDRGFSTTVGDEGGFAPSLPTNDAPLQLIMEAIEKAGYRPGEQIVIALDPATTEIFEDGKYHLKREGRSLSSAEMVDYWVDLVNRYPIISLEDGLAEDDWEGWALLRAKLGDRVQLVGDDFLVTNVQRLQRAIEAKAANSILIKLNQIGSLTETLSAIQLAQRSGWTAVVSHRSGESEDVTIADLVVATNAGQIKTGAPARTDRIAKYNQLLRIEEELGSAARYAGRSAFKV

## C=C(OP(=O)(O)O)C(=O)O [phosphoenolpyruvate]
  X-ray crystal structure of the complex: PEP itself is bound by Glu165, Glu206, Lys338, Arg367, and Ser368
